Data from patent publication US20050124637A1, “Compounds and compositions as inhibitors of receptor tyrosine kinase activity” (IRM LLC, priority 2003, published 2005).
pIC50: −log10 of the molar value.

How the values were obtained:
[1] = molecular target: T1, Bmx (Homo sapiens, UniProt P51813); test: Upstate KinaseProfiler radio-enzymatic filter binding assay, Bmx; format: biochemical; details: 10 μM compound; read-out: percentage inhibition, Bmx
T1 construct: purchased Upstate
T1 sequence (P51813 1-675): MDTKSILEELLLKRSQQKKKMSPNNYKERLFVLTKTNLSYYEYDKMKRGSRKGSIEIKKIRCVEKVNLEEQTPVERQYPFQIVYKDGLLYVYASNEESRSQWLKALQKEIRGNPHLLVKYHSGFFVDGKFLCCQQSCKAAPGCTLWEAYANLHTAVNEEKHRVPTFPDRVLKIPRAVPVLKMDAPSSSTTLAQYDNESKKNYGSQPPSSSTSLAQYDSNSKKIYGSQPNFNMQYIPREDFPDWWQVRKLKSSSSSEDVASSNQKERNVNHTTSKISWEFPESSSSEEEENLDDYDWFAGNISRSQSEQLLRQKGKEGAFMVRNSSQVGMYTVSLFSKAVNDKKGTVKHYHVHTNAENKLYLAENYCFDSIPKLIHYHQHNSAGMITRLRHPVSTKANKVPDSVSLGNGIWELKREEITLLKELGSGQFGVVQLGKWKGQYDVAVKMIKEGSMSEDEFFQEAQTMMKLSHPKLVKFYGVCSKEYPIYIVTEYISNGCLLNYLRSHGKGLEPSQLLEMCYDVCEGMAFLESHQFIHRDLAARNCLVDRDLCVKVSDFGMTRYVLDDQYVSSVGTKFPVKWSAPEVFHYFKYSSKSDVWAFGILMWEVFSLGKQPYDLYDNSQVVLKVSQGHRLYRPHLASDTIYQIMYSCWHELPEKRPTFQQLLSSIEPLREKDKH
Protocol: (§1) Compounds of the invention are assessed for their ability to inhibit individual members of a panel of kinases (a partial, non-limiting list of kinases includes: cSRC, Lck, FGFR3, Flt3, TrkB and PFGFRα). The compounds are tested in duplicates at a final concentration of 10 μM following this generic protocol. Note that the kinase buffer composition and the substrates vary for the different kinases included in the “Upstate KinaseProfiler™” panel. Kinase buffer (2.5 μL, 10×-containing MnCl2 when required), active kinase (0.001-0.01 Units; 2.51 μL), specific or Poly(Glu4-Tyr) peptide (5-500 μM or 0.01 mg/ml) in kinase buffer and kinase buffer (50 μM; 5 μL) are mixed in an eppendorf on ice. A Mg/ATP mix (10 μL; 67.5 (or 33.75) mM MgCl2, 450 (or 225) μM ATP and 1 μCi/μl [γ-^32P]-ATP (3000 Ci/mmol)) is added and the reaction is incubated at about 30° C. for about 10 minutes. The reaction mixture is spotted (20 μL) onto a 2 cm×2 cm P81 (phosphocellulose, for positively charged peptide substrates) or Whatman No. 1 (for Poly (Glu4-Tyr) peptide substrate) paper square. The assay squares are washed 4 times, for 5 minutes each, with 0.75% phosphoric acid and washed once with acetone for 5 minutes. The assay squares are transferred to a scintillation vial, 5 ml scintillation cocktail are added and ^32P incorporation (cpm) to the peptide substrate is quantified with a Beckman scintillation counter. Percentage inhibition is calculated for each reaction.

[2] = molecular target: T2, c-Src (Homo sapiens, UniProt P12931); test: Upstate KinaseProfiler radio-enzymatic filter binding assay, c-Src; format: biochemical; details: 10 μM compound; read-out: percentage inhibition, c-Src
T2 construct: purchased Upstate
Protocol: as §1

[3] = molecular target: T3, Lck (Homo sapiens, UniProt P06239); test: Upstate KinaseProfiler radio-enzymatic filter binding assay, Lck; format: biochemical; details: 10 μM compound; read-out: percentage inhibition, Lck
T3 construct: purchased Upstate
Protocol: as §1

[4] = molecular target: T4, Flt3 (Homo sapiens, UniProt P36888); test: Upstate KinaseProfiler radio-enzymatic filter binding assay, Flt3; format: biochemical; details: 10 μM compound; read-out: percentage inhibition, Flt3
T4 construct: purchased Upstate
T4 sequence (P36888 27-993): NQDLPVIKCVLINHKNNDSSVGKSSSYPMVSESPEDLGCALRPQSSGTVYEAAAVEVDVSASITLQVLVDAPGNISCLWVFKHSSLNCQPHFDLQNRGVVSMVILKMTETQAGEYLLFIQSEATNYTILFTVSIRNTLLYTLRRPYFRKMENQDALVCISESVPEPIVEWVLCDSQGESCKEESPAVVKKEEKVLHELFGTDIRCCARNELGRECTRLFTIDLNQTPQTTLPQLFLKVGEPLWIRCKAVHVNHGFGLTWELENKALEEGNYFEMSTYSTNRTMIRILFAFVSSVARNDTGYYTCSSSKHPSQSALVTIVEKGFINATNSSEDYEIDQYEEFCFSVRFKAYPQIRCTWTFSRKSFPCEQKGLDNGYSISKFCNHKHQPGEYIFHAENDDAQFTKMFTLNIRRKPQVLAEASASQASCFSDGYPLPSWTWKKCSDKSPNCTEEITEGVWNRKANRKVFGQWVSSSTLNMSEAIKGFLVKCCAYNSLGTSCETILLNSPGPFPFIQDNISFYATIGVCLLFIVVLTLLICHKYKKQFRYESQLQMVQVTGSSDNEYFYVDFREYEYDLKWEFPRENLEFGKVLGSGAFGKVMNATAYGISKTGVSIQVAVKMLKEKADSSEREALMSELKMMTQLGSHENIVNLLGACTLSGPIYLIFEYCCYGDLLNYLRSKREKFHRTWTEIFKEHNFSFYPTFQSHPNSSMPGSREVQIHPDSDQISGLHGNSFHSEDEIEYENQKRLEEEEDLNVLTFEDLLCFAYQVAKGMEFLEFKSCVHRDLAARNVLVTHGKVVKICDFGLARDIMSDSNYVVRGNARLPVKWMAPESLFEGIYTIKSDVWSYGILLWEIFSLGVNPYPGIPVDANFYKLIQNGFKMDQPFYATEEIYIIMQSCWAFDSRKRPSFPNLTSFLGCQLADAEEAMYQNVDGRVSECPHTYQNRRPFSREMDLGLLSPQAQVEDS
Protocol: as §1

[5] = molecular target: T5, TrkB (Homo sapiens, UniProt Q16620); test: Upstate KinaseProfiler radio-enzymatic filter binding assay, TrkB; format: biochemical; details: 10 μM compound; read-out: percentage inhibition, TrkB
T5 construct: purchased Upstate
Protocol: as §1

[6] = molecular target: T6, Abl (Homo sapiens, UniProt P00519); test: Upstate KinaseProfiler radio-enzymatic filter binding assay, Abl; format: biochemical; details: 10 μM compound; read-out: percentage inhibition, Abl
T6 construct: purchased Upstate
Protocol: (§2) Compounds of the invention are assessed for their ability to inhibit individual members of a panel of kinases (a partial, non-limiting list of kinases includes: cSRC, Lck, FGFR3, Flt3, TrkB and PFGFRα). The compounds are tested in duplicates at a final concentration of 10 μM following this generic protocol. Note that the kinase buffer composition and the substrates vary for the different kinases included in the “Upstate KinaseProfiler™” panel. Kinase buffer (2.5 μL, 10×-containing MnCl2 when required), active kinase (0.001-0.01 Units; 2.51 μL), specific or Poly(Glu4-Tyr) peptide (5-500 μM or 0.01 mg/ml) in kinase buffer and kinase buffer (50 μM; 5 μL) are mixed in an eppendorf on ice. A Mg/ATP mix (10 μL; 67.5 (or 33.75) mM MgCl2, 450 (or 225) μM ATP and 1 μCi/μl [γ-^32P]-ATP (3000 Ci/mmol)) is added and the reaction is incubated at about 30° C. for about 10 minutes. […] The assay squares are transferred to a scintillation vial, 5 ml scintillation cocktail are added and ^32P incorporation (cpm) to the peptide substrate is quantified with a Beckman scintillation counter. Percentage inhibition is calculated for each reaction.

[7] = molecular target: T7, FGFR3 (Homo sapiens, UniProt P22607); test: Upstate KinaseProfiler radio-enzymatic filter binding assay, FGFR3; format: biochemical; details: 10 μM compound; read-out: percentage inhibition, FGFR3
T7 construct: purchased Upstate
Protocol: as §2

[8] = molecular target: T8, purified GST-Flt-3 (Homo sapiens, UniProt P36888); test: Flt-3 tyrosine protein kinase assay, 33P incorporation from γ-33P-ATP into poly-EY; format: biochemical; details: purified GST-Flt-3, 10 μM ATP; read-out: IC50 in the assay described in example 13
T8 sequence (P36888 27-993): T4 sequence (P36888 27-993)
Protocol: The activity is assayed in the presence or absence of different concentrations of inhibitors, by measuring the incorporation of ^33P from γ-^33P-ATP into appropriate substrates.
Tyrosine protein kinase assay with purified GST-Flt-3 is carried out in a final volume of 40 μL containing 500 ng of enzyme in kinase buffer (30 mM Tris-HCl (pH7.5), 3 mM MnCl2, 15 mM MgCl2, 1.5 mM DTT, 15 μM Na3VO4, 7.5 mg/ml PEG, 0.25 μM poly-EY(Glu, Tyr), 1% DMSO (at highest concentration of compound), 10 μM ATP and γ-^33P-ATP (0.1 μCi)). Two solutions are made: the first solution of 10 μl contains the Flt-3 enzyme and the inhibitor. The second solution contains the substrate (poly-EY), ATP, and γ-^33P-ATP in 30 μl of kinase buffer. Both solutions are mixed on 96-well PVDF filter plates (Millipore, Bedford, Mass., USA), previously wetted with 70% ethanol and rinsed with 1M Tris (7.4). The reaction is incubated at room temperature for 20 minutes, stopped with 0.1% phosphoric acid and then filtered through the plate using a vacuum manifold, allowing the substrate to bind to the membrane. The plates are then washed 5 times with 0.1% phosphoric acid, mounted in Packard TopCount 96-well adapter plate, and 50 μL of Microscint™ (Packard) is added to each well before counting. […]

[9] = test system: Ba/F3-Flt3-ITD cells; test: Ba/F3-Flt3-ITD cell proliferation/cytotoxicity (Yo-Pro); format: cell-based; details: Ba/F3 cells dependent on mutant Flt3, 48 hours, read-out: IC50 in the assay described by example 14
Description: Compounds that have differential activity (more than or equal to 10 fold difference in sensitivity between Flt3+ cell lines and Flt3− cell lines are selected for further study.
The cell lines used for the initial screening are sub-lines of Ba/F3 cells that are engineered to over-express mutant or wild-type (non-mutated) Flt3 following infection with a retrovirus expressing appropriate Flt3 cDNAs. The parent cell line, Ba/F3 is dependent on interleukin-3 for proliferation, and when deprived of IL-3, the cells rapidly cease proliferation and die. The retrovirus expresses Flt3 from the retrovirual LTR and the neo gene from an IRES site. Ba/F3 cells are selected in G418 and analyzed for expression of Flt3 by fluorescence activated cell sorting (FACS). Cell lines with two different Flt3 mutations are used. One mutant expresses a Flt-3 that has a 14 amino acid duplication in the juxtamembrane domain encoded by exon 11, the specific duplication being . . . VDFREYEYDLKWEF . . . […]
Yo-Pro-1 iodide (Molecular Probes) is added to the cells at a final concentration of 2.5 μM in NaCl/Na-citrate buffer. The cells are incubated with Yo-Pro for 10 minutes at room temperature and then read on a fluorimeter for determination of cytotoxicity. Next, the cells are lysed with NP40/EDTA/EGTA buffer, incubated at room temperature for 90 minutes and read for the determination of proliferation. […]

[10] = molecular target: T9, Rsk1 (Homo sapiens, UniProt Q15418); test: Upstate KinaseProfiler radio-enzymatic filter binding assay, Rsk1; format: biochemical; details: 10 μM compound; read-out: percentage inhibition, Rsk1
T9 construct: purchased Upstate
Protocol: as §2

T3 sequence (P06239 whole entry): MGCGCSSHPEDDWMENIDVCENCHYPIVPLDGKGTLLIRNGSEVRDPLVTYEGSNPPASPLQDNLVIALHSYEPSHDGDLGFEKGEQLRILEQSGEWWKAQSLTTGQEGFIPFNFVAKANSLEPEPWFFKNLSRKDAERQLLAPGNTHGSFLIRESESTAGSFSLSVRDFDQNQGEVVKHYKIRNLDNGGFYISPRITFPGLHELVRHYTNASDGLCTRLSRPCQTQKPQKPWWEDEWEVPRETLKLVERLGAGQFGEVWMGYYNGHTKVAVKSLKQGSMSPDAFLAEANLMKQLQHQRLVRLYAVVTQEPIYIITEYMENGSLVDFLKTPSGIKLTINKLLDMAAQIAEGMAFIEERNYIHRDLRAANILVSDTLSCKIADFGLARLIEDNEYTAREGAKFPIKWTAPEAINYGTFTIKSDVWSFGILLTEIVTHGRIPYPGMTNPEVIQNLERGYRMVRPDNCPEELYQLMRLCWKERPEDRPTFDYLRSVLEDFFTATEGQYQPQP
T5 sequence (Q16620 32-822): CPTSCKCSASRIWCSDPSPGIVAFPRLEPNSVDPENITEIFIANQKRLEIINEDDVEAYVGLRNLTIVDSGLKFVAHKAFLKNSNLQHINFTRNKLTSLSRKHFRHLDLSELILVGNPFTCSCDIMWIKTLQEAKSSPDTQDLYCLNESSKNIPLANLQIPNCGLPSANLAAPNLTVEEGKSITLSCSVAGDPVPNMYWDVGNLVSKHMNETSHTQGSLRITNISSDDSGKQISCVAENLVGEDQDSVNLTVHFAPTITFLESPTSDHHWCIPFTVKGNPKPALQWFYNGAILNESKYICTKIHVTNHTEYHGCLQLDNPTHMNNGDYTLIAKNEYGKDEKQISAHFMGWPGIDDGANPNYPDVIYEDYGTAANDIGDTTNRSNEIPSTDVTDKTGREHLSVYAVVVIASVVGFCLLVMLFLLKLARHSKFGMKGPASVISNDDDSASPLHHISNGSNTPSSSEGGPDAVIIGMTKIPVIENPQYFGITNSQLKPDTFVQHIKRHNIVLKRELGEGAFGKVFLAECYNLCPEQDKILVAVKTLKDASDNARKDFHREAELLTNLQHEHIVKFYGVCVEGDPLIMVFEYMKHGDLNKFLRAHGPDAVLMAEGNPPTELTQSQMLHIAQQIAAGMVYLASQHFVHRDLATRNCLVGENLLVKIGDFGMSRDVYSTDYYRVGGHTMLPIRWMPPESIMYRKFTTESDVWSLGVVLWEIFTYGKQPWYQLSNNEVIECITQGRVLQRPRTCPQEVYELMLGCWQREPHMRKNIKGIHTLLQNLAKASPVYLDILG
T2 sequence (P12931 whole entry): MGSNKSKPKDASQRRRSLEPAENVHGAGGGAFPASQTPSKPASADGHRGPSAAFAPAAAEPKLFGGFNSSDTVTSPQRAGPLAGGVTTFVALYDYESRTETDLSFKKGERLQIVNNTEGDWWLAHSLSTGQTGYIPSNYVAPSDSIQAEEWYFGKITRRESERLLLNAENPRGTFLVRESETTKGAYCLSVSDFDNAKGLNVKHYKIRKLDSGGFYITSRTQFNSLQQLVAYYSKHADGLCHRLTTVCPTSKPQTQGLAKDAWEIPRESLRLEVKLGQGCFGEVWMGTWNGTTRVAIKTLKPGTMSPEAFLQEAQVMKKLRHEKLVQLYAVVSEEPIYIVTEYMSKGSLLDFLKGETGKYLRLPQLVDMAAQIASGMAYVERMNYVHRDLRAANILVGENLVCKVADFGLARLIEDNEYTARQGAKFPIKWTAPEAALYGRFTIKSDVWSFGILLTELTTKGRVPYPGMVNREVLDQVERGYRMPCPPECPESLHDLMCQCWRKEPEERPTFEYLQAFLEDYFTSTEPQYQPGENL
T6 sequence (P00519 whole entry, species assumed): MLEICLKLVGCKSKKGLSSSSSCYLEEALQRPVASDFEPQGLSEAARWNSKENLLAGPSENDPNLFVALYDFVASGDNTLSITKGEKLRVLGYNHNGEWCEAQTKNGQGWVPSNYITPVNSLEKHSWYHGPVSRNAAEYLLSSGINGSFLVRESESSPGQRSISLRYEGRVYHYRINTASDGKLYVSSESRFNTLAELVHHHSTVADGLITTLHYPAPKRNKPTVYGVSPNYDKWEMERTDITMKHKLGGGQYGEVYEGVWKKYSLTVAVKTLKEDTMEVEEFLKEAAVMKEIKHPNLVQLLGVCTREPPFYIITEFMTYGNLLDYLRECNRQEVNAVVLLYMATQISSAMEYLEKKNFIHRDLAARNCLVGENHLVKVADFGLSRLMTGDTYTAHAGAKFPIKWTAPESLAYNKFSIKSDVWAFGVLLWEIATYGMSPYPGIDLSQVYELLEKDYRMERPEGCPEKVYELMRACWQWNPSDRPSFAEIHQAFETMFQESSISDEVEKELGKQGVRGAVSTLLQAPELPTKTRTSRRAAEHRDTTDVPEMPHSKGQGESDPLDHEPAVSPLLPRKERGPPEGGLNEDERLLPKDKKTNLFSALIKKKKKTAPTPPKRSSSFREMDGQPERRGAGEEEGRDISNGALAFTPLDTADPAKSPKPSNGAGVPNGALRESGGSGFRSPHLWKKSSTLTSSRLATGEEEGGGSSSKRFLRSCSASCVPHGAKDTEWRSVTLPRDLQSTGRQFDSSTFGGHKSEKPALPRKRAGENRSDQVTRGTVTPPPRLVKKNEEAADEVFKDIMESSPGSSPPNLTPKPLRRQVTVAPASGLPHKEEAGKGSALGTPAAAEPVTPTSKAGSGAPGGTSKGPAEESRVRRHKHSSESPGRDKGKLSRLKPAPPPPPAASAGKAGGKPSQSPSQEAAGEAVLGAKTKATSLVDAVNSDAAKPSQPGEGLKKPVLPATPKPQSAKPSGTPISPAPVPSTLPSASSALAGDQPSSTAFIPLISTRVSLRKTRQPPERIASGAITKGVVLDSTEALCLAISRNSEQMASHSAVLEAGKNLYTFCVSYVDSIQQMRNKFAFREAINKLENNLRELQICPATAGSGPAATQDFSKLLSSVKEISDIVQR
T7 sequence (P22607 23-806): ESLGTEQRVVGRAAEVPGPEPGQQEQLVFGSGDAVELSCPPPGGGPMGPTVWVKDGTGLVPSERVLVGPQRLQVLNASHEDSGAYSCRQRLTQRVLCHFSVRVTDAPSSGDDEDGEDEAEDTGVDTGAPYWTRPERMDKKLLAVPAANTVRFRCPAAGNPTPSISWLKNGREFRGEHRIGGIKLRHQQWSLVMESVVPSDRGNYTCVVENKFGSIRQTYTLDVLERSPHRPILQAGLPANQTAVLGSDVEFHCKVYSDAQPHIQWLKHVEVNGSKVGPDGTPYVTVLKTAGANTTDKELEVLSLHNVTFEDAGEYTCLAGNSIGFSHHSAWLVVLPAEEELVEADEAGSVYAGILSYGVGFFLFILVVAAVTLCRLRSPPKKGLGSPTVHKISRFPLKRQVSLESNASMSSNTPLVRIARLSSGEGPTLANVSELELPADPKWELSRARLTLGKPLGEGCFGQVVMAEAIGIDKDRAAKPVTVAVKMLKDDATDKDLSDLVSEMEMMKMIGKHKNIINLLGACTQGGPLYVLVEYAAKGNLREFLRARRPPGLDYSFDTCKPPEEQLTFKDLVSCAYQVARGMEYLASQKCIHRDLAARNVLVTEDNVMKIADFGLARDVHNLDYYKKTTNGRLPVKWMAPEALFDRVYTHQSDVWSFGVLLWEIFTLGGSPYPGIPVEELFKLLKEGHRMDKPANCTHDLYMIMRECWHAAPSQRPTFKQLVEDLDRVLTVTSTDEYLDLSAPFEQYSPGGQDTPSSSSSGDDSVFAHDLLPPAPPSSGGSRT
T9 sequence (Q15418 whole entry, species assumed): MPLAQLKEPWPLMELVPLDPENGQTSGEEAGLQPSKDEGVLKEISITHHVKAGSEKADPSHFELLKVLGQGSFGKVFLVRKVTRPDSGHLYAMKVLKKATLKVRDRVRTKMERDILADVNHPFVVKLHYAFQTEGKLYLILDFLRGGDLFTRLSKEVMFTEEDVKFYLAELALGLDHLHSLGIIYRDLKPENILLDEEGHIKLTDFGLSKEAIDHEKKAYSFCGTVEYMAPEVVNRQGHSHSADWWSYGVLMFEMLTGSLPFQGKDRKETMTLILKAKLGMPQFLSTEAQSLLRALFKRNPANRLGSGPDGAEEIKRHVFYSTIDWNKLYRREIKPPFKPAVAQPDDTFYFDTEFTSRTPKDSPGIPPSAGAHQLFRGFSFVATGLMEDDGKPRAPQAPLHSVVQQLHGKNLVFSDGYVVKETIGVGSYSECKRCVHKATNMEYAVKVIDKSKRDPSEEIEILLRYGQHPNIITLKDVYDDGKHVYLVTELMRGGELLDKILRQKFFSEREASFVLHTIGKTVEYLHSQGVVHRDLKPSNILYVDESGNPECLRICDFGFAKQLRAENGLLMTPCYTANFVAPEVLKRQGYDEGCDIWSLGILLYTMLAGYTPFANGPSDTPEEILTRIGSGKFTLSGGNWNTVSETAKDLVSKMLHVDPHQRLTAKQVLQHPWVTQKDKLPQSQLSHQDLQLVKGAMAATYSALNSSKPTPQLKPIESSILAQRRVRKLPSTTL

SMILES	inhibition at 10 µM [1]	inhibition at 10 µM [2]	inhibition at 10 µM [3]	inhibition at 10 µM [4]	inhibition at 10 µM [5]	inhibition at 10 µM [6]	inhibition at 10 µM [7]	pIC50 [8]	pIC50 [9]	inhibition at 10 µM [10]
CS(=O)(=O)c1ccc(Nc2nc(N3CCOCC3)nc3c2ncn3-c2cscn2)cc1 [Compound 503, (4-Methanesulfonyl-phenyl)-(2-morpholin-4-yl-9-thiazol-4-yl-9H-purin-6-yl)-amine]	71%	98%	99%	99%	99%	81%	–	–	–	–
CS(=O)(=O)c1ccc(Nc2nc(NCc3ccccn3)nc3c2ncn3-c2cscn2)cc1 [Compound 554, N^6-(4-Methanesulfonyl-phenyl)-N^2-pyridin-2-ylmethyl-9-thiazol-4-yl-9H-purine-2,6-diamine]	86%	99%	95%	100%	99%	98%	98%	–	–	–
NC1CCC(Nc2nc(Nc3ccc(C(=O)N4CCCCC4)cc3)c3ncn(-c4ccsc4)c3n2)CC1 (stereo not drawn) [{4-[2-(4-amino-cyclohexylamino)-9-thiophen-3-yl-9H-purin-6-ylamino]-phenyl}-piperidin-1-yl-methanone]	–	–	–	–	–	–	–	8.15	8.30	–
CN1CCC(N(C)c2nc(Nc3ccc(N4CCOCC4)cc3)c3ncn(-c4cscn4)c3n2)CC1 [Compound 539, N^2-Methyl-N^2-(1-methyl-piperidin-4-yl)-N^6-(4-morpholin-4-yl-phenyl)-9-thiazol-4-yl-9H-purine-2,6-diamine]	90%	97%	99%	100%	99%	–	–	–	–	82%
